The text below walks through data of patent US20240277852A1, “INHIBITORS AND DEGRADERS OF PIP4K PROTEIN” (DANA-FARBER CANCER INSTITUTE, INC., priority 2021, published 2024).

Molecules are shown by their SMILES.

One assay has as its target PIP4K2C (Homo sapiens (Human), UniProt Q8TBX8). The assay is described as follows: KINOMEscan PIP5K2C (also known as PIP4K2C) Assay (Eurofins Discovery). Format: binding. How it is done:
(§1) The inhibitory activity of the compounds were evaluated using KINOMEscan® PIP5K2B (also known as PIP4K2B) and KINOMEscan® PIP5K2C (also known as PIP4k2C) Assays (Eurofins Discovery) following the manufacturer's standards.

The target in a further assay is PIP4K2B (Homo sapiens (Human), UniProt P78356). The assay is described as follows: KINOMEscan PIP5K2B (also known as PIP4K2B) Assay (Eurofins Discovery). Format: binding. As for the experimental part: as §1
Chain of PIP4K2B (P78356 whole entry): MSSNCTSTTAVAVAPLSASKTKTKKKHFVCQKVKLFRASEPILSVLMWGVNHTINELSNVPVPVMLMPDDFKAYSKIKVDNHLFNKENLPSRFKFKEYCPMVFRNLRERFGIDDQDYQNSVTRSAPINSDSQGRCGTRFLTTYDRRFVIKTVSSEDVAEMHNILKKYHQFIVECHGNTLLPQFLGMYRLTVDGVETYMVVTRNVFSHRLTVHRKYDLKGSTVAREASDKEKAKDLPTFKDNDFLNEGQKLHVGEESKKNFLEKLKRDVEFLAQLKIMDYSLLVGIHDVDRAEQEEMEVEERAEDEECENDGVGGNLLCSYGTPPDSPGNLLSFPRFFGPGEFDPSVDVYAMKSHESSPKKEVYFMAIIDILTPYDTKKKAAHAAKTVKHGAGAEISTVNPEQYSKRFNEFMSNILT
For another assay, the target named is PIP4K2A (Homo sapiens (Human), UniProt P48426). The assay is described as follows: PIP4K2A inhibitory activity (Table 1). Format: biochemical.
Chain of PIP4K2A (P48426 whole entry, species assumed): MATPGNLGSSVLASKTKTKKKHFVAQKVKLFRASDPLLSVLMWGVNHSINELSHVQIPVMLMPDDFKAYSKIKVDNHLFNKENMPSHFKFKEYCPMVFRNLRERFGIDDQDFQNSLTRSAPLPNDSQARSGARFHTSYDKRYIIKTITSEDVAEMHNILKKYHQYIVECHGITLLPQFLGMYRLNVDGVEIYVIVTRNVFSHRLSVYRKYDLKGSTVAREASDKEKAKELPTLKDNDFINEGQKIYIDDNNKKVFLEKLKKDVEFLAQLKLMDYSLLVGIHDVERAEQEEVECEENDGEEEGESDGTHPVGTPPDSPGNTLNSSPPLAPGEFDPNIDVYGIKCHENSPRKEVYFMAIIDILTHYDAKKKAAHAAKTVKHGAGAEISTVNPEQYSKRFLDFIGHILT

Chain of PIP4K2C (Q8TBX8 whole entry): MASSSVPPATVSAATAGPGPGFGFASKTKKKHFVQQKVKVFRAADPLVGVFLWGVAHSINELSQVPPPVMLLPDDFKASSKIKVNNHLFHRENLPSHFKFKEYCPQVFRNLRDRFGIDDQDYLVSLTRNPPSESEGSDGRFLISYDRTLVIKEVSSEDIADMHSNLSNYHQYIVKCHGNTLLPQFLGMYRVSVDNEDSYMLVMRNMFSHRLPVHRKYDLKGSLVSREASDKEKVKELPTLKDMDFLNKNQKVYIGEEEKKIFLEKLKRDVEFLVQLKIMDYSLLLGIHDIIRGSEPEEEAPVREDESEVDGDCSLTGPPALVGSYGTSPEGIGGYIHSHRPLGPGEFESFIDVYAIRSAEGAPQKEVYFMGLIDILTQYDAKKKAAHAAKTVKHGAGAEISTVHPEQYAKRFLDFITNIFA

In the case of `CC(=O)N(CC#N)S(=O)(=O)c1ccc(Nc2ncc(Cl)c(-c3cccc(-c4ccccc4)c3)n2)c(C)c1` [Compound 2], the Kd was 56 nM on PIP4K2C and more than 10 µM at PIP4K2B. Further, the IC50 on PIP4K2A was more than 10 µM.
Turning to `O=C(Nc1cncc(Nc2ncc(Cl)c(-c3cccc(-c4cccnc4)c3)n2)c1)c1ccccc1` [Compound 14], the dissociation constant (Kd) on PIP4K2C is 38 nM; on PIP4K2B, more than 10 µM.
On the same counts, the results for `CC(=O)Nc1cncc(Nc2ncc(Cl)c(-c3cccc(-c4ccccc4)c3)n2)c1` [Compound 11, N-(5-((4-([1,1′-biphenyl]-3-yl)-5-chloropyrimidin-2-yl)amino)pyridin-3-yl)acetamide] are 7.2 nM and more than 10 µM.
For the compound `O=C1CC[C@H]2COc3ncc(Nc4ncc(Cl)c(-c5cccc(-c6ccccc6)c5)n4)cc3N12` [Compound 15, (S)-2-((4-([1,1′-biphenyl]-3-yl)-5-chloropyrimidin-2-yl)amino)-6,6a,7,8-tetrahydro-9H-pyrido[2,3-b]pyrrolo[1,2-d][1,4]oxazin-9-one], the values for the Kd on PIP4K2C and at PIP4K2B were 0.45 nM and more than 10 µM, respectively.
In turn, `Cc1ccc(NS(C)(=O)=O)cc1Nc1ncc(Cl)c(-c2cccc(-c3ccccc3)c2)n1` [Compound 7, N-(3-((4-([1,1′-biphenyl]-3-yl)-5-chloropyrimidin-2-yl)amino)-4-methylphenyl)methanesulfonamide] had a Kd at PIP4K2C of 150 nM.
Consider `CC(=O)N[C@H](C(=O)N1C[C@H](O)C[C@H]1C(=O)N[C@@H](C)c1ccc(-c2scnc2C)cc1OCCCCCNC(=O)CCC(=O)Nc1cncc(Nc2ncc(Cl)c(-c3cccc(-c4ccccc4)c3)n2)c1)C(C)(C)C` [Compound 53, N1-(5-((4-([1,1′-biphenyl]-3-yl)-5-chloropyrimidin-2-yl)amino)pyridin-3-yl)-N4-(5-(2-((S)-1-((2S,4R)-1-((S)-2-acetamido-3,3-dimethylbutanoyl)-4-hydroxypyrrolidine-2-carboxamido)ethyl)-5-(4-methylthiazol-5-yl)phenoxy)pentyl)succinimide], for which the dissociation constant (Kd) at PIP4K2C was determined as 110 nM.
On to `CC(=O)Nc1ccc(C)c(Nc2ncc(Cl)c(-c3cccc(-c4ccccc4)c3)n2)c1` [Compound 9, N-(3-((4-([1,1′-biphenyl]-3-yl)-5-chloropyrimidin-2-yl)amino)-4-methylphenyl)acetamide], for which the dissociation constant (Kd) on PIP4K2C was 1400 nM; at PIP4K2B, more than 10 µM.
Take `NS(=O)(=O)c1ccc(Nc2ncc(Cl)c(-c3cccc(-c4ccccc4)c3)n2)cc1` [Compound 4]: the results for the Kd on PIP4K2C and at PIP4K2B were 64 nM and more than 10 µM, respectively. The IC50 at PIP4K2A is more than 10 µM.
On to `Cc1cc(C(N)=O)ccc1Nc1ncc(Cl)c(-c2cccc(-c3ccccc3)c2)n1` [Compound 5, 4-((4-([1,1′-biphenyl]-3-yl)-5-chloropyrimidin-2-yl)amino)-3-methylbenzamide], for which binding at PIP4K2C was characterised by a dissociation constant (Kd) of 46 nM.
Take `Cc1cc(S(N)(=O)=O)ccc1Nc1ncc(Cl)c(-c2cccc(-c3ccccc3)c2)n1` [Compound 1]: the Kd at PIP4K2C was 36 nM; at PIP4K2B, more than 10 µM. At PIP4K2A, this compound gave an IC50 of more than 10 µM.
`CC(=O)Nc1ccc(Nc2ncc(Cl)c(-c3cccc(-c4ccccc4)c3)n2)c(C)c1` [Compound 8, N-(4-((4-([1,1′-biphenyl]-3-yl)-5-chloropyrimidin-2-yl)amino)-3-methylphenyl)acetamide] showed a Kd at PIP4K2C of 270 nM.
Consider `O=C(Nc1cccc(Nc2ncc(Cl)c(-c3cccc(-c4ccccc4)c3)n2)c1)c1ccccc1` [Compound 12, N-(3-((4-([1,1′-biphenyl]-3-yl)-5-chloropyrimidin-2-yl)amino)phenyl)benzamide], for which the Kd is 140 nM on PIP4K2C and more than 10 µM on PIP4K2B.
On the same counts, the results for `O=C(Nc1cncc(Nc2ncc(Cl)c(-c3cccc(-c4ccccc4)c3)n2)c1)c1ccccc1` [Compound 13, N-(5-((4-([1,1′-biphenyl]-3-yl)-5-chloropyrimidin-2-yl)amino)pyridin-3-yl)benzamide] are 21 nM and more than 10 µM.
Turning to `O=C(COc1cccc2c1C(=O)N(C1CCC(=O)NC1=O)C2=O)NCCOCCOCCNS(=O)(=O)c1ccc(Nc2ncc(Cl)c(-c3cccc(-c4ccccc4)c3)n2)cc1` (centres unmarked) [Compound 36, N-(2-(2-(2-((4-((4-([1,1′-biphenyl]-3-yl)-5-chloro-1|4-pyrimidin-2-yl)amino)phenyl)sulfonamido)ethoxy)ethoxy)ethyl)-2-((2-(2,6-dioxopiperidin-3-yl)-1,3-dioxoisoindolin-4-yl)oxy)acetamide], the Kd at PIP4K2C amounted to 460 nM.
Same read-out and setting: the result for `Cc1cc(NS(C)(=O)=O)ccc1Nc1ncc(Cl)c(-c2cccc(-c3ccccc3)c2)n1` [Compound 6, N-(4-((4-([1,1′-biphenyl]-3-yl)-5-chloropyrimidin-2-yl)amino)-3-methylphenyl)methanesulfonamide] reads 43 nM.
Consider `CC(=O)N(C)S(=O)(=O)c1ccc(Nc2ncc(Cl)c(-c3cccc(-c4ccccc4)c3)n2)c(C)c1` [Compound 3, N-((4-((4-([1,1′-biphenyl]-3-yl)-5-chloropyrimidin-2-yl)amino)-3-methylphenyl)sulfonyl)-N-methylacetamide], for which the Kd was 29 nM on PIP4K2C and more than 10 µM at PIP4K2B. Moreover, the half-inhibitory concentration (IC50) against PIP4K2A stood at 8.76 µM.
As for `Cc1ncsc1-c1ccc([C@H](C)NC(=O)[C@@H]2C[C@@H](O)CN2C(=O)[C@@H](NC(=O)CCCCCC(=O)N2CCC3(CC2)CCN(c2cncc(Nc4ncc(Cl)c(-c5cccc(-c6ccccc6)c5)n4)c2)C3=O)C(C)(C)C)cc1` [Compound 57], the results for the dissociation constant Kd at PIP4K2C and at PIP4K2B were 42 nM and more than 10 µM, respectively.
Regarding `Cc1ncsc1-c1ccc(CNC(=O)[C@@H]2C[C@@H](O)CN2C(=O)[C@@H](NC(=O)C2(F)CC2)C(C)(C)C)c(OCCCCCCC(=O)N2CCC3(CC2)CCN(c2cncc(Nc4ncc(Cl)c(-c5cccc(-c6ccccc6)c5)n4)c2)C3=O)c1` [Compound 56, (2S,4R)—N-(2-((7-(2-(5-((4-([1,1′-biphenyl]-3-yl)-5-chloropyrimidin-2-yl)amino)pyridin-3-yl)-1-oxo-2,8-diazaspiro[4,5]decan-8-yl)-7-oxoheptyl)oxy)-4-(4-methylthiazol-5-yl)benzyl)-1-((S)-2(1-fluorocyclopropane-1-carboxamido)-3,3-dimethylbutanoyl)-4-hydroxypyrrolidine-2-carboxamide], the dissociation constant Kd on PIP4K2C is 620 nM; at PIP4K2B, more than 10 µM.
The compound `Cc1ccc(C(N)=O)cc1Nc1ncc(Cl)c(-c2cccc(-c3ccccc3)c2)n1` [Compound 10, 3-((4-([1,1′-biphenyl]-3-yl)-5-chloropyrimidin-2-yl)amino)-4-methylbenzamide] registered a Kd on PIP4K2C of 65 nM.

By Kd is commonly meant the free concentration of one partner at which half of the binding sites on the other are occupied at equilibrium, for simple one-to-one binding. Low readings indicate a tighter complex, high ones a looser complex. A word on the IC50: it is the point on the concentration scale where inhibition reaches its midpoint.
